Test results reported in patent publication US6858434B1, “Method for synthesis, separation and screening of a plurality of compounds in the same bulk of a stationary phase” (Sinvent AS, priority 1999, dated 2005).

Test system: Serracia marcescens
Assay: agar overlay screening for antimicrobial activity on the TLC plate
Format: cell-based
Conditions: agar gel containing Serracia marcescens poured over the TLC plate, left overnight at room temperature

SMILES: c1ccc(CN2CCCC2)cc1 [product]
- antibacterial activity (white inhibition zones around the spot): antibacterial activity
